Results reported in publication PMC10590756, “Glutarate regulates T cell metabolism and anti-tumour immunity” (Nature Metabolism, 2023).

Legend:
human CD8^+ T cells = experiment: qPCR gene expression in CD8^+ T cells; format: cell-based; settings: 500 µM DEG, 7 days
Protocol: Total RNA was extracted from isolated CD8^+ T cells (RNeasy Kit, QIAGEN); 300 ng of RNA were used for complementary DNA synthesis (First-Strand cDNA Synthesis Kit, Invitrogen). Quantitative PCR with reverse transcription (RT–qPCR) was performed with SYBR green (Roche) in a StepOnePlus system (Applied Biosystems). All kits were used according to the manufacturer’s instructions. Samples were run in technical duplicates. Primers were designed with NCBI primer blast and are listed in Supplementary Table 5.

[1] = molecular target: T1, PDHE2 lipoate in human CD8^+ T cells (Homo sapiens, UniProt P10515); experiment: PDHE2 lipoate western blot; format: cell-based; settings: 500 µM DEG, 24 h
T1 construct: We treated human CD8^+ T cells with DEG and observed reduced PDHE2 lipoate level; endogenous in cells; host or cells: primary human CD8+ T cells
T1 sequence (P10515 87-647): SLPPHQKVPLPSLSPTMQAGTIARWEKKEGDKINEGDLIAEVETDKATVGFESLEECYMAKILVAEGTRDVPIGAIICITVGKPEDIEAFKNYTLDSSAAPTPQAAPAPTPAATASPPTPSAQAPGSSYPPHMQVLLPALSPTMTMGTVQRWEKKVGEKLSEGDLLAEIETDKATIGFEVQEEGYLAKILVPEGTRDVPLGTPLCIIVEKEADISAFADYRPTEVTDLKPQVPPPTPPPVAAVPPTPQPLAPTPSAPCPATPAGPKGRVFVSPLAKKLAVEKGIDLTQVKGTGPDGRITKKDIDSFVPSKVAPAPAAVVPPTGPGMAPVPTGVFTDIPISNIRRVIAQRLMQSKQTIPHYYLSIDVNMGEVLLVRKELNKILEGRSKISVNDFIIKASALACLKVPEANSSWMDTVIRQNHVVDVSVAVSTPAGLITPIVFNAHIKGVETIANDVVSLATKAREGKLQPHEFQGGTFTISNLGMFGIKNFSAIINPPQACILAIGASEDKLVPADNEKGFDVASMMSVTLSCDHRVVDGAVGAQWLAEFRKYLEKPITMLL
Protocol: Lipoic acid western blotting was performed as above with the following alterations: blocking buffer and secondary antibody buffer (5% milk plus 1% fatty acid free bovine serum albumin (BSA) (catalogue no. BP9704100, Thermo Fisher Scientific) prepared in PBS plus 0.05% Tween-20); and primary antibody buffer (2% fatty acid free BSA prepared in PBS plus 0.05% Tween-20). Lipoic acid antibody was used at a concentration of 1:2,000 (catalogue no. 437695, Sigma-Aldrich). Data were analysed using the iBright Analysis Software v.4.0.1 or ImageJ.

[2] = molecular target: T2, human full-length HIF-P4H-1 (Homo sapiens, UniProt Q96KS0); experiment: Cell-free HIF-P4H-1 activity assay (^14CO2 release); format: biochemical
T2 construct: The human full-length HIF-P4H-1 and KDM6A enzymes were recombinantly produced using Sf21 insect cells; made in house; host or cells: Sf21 insect cells (baculovirus)
T2 sequence (Q96KS0 whole entry): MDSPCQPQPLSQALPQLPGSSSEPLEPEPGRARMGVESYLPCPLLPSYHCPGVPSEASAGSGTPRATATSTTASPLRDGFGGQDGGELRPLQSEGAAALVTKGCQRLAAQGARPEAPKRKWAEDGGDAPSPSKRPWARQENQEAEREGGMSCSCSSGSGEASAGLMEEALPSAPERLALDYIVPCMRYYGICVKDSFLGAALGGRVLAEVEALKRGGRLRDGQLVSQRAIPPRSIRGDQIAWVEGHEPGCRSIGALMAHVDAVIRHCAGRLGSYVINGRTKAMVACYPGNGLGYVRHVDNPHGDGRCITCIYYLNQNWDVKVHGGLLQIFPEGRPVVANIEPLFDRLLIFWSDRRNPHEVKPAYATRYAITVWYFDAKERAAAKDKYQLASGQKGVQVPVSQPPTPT
Excerpt: (§1) The human full-length HIF-P4H-1 and KDM6A enzymes were recombinantly produced using Sf21 insect cells and the enzymes were purified with anti-FLAG M2 affinity gel as described previously[68],[69]. Briefly, the C terminus FLAG-tagged human HIF-P4H1-2 and KDM6A were generated using PCR and subcloned into pAcG3X and pVL1393 baculovirus expression vectors, respectively. The recombinant baculoviruses were generated by transducing the bacmid DNA into Spodoptera frugiperda Sf9 cells using BaculoGold DNA (HIF-P4H1-2, BD Biosciences) and BacMagic-3 DNA kit (for KDM6A, Novagen). Recombinant proteins were produced by infecting Sf21 insect cells with the corresponding amplified baculoviruses for 72 h at 27 °C. Cells were homogenized in a buffer containing 10 mM Tris, 150 mM NaCl, 100 mM glycine, 0.1% (v/v) Triton X-100, pH 7.8, and a protease inhibitor cocktail tablet without EDTA. The cell lysates were centrifuged at 21,000g for 30 min; the soluble fractions containing the FLAG-tagged proteins were affinity-purified using the anti-FLAG M2 affinity gel (Sigma-Aldrich). […] Protein concentration was measured with NanoDrop and proteins were analysed by SDS–PAGE followed by Coomassie brilliant blue staining. […] The IC50 value of the glutarate analogue was calculated from the inhibition saturation curves.

human full-length KDM6A = molecular target: T3, human full-length KDM6A (Homo sapiens, UniProt O15550); experiment: Cell-free KDM6A activity assay (^14CO2 release); format: biochemical
T3 construct: The human full-length HIF-P4H-1 and KDM6A enzymes were recombinantly produced using Sf21 insect cells; made in house; host or cells: Sf21 insect cells (baculovirus, pVL1393)
T3 sequence (O15550 whole entry): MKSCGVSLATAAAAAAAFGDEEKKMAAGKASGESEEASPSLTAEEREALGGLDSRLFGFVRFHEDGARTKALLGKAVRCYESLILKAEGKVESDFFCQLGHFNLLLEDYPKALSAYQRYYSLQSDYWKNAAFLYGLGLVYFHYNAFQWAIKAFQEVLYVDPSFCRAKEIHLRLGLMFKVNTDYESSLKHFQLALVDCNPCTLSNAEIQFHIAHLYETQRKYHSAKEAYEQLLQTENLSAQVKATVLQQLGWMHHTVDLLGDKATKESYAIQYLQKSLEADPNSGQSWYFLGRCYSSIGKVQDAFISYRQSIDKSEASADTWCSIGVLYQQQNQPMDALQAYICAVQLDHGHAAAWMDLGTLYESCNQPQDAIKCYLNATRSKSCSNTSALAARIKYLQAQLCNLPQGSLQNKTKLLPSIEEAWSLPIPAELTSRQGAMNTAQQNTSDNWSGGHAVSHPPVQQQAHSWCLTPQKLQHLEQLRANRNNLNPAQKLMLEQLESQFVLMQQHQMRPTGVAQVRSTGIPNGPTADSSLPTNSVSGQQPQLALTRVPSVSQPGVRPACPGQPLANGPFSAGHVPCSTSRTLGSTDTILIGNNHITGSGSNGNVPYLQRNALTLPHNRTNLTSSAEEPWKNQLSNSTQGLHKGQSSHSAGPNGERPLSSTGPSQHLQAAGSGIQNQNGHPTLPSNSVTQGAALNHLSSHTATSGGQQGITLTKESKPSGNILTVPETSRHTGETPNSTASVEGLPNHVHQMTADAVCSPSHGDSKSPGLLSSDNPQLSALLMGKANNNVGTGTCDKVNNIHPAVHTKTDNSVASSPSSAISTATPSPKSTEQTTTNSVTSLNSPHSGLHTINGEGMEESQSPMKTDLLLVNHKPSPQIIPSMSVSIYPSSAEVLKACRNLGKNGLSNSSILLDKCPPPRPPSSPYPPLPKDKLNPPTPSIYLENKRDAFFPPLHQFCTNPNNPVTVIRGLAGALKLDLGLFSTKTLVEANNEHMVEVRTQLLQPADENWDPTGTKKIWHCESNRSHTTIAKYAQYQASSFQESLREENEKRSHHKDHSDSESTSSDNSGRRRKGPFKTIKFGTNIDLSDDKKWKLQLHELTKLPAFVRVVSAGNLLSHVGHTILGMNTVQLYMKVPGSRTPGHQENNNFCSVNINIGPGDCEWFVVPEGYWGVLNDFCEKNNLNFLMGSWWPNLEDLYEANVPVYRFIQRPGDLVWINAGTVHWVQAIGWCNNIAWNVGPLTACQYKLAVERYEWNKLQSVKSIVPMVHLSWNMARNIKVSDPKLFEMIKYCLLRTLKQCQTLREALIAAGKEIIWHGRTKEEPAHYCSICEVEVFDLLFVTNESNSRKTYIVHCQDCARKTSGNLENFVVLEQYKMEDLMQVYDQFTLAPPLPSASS
Excerpt: as §1

| Structure (SMILES) | carnitine palmitoyltransferase 1A (CPT1A) gene expression (human CD8^+ T cells) | expression of HIF target genes (human CD8^+ T cells) | fatty acid binding protein (FABP) gene expression (human CD8^+ T cells) | fatty acid synthase (FASN) gene expression (human CD8^+ T cells) | mRNA levels of PDHK1 (human CD8^+ T cells) | PDHE2 lipoate level [1] | IC50 [2] [µM] | IC50 (human full-length KDM6A) [µM] |
| --- | --- | --- | --- | --- | --- | --- | --- | --- |
| CCOC(=O)CCCC(=O)OCC [DEG, Diethyl glutarate] | increased levels | increased expression | increased levels | increased levels | increased | reduced |  |  |
| O=C(O)CCCC(=O)O [glutarate, glutaric acid] |  |  |  |  |  |  | 2000 | 600 |
